Source: patent US20130217702A1 (Richter Gedeon Nyrt., priority 2010, published 2013)

Key:
[1] = biological target: T1, human recombinant bradykinin B1 receptor (Homo sapiens, UniProt P46663); experiment: Human recombinant bradykinin B1 receptor competitive radioligand binding; conditions: hB1 expressed in CHO cells, [3H]-[Des-Arg10] Kallidin radioligand; read-out: B1 binding
T1 construct: host or cells: CHO cells, clone hB1-A5
T1 sequence (P46663 1-353): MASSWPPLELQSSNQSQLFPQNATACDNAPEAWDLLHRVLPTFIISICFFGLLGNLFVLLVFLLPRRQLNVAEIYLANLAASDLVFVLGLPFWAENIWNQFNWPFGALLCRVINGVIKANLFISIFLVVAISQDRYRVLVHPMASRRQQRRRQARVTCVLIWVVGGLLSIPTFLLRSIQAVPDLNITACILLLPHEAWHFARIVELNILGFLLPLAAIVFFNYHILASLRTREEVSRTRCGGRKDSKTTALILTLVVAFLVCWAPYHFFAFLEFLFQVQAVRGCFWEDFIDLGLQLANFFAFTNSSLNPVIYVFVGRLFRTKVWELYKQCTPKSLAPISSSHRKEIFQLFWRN
Procedure, shortened: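 Membranes from CHO cells expressing hB1 (20 μg protein/tube) incubated 15 min at 25° C. with [3,4-prolyl-3,4-^3H(N)]-[Des-Arg^10] Kallidin; nonspecific binding defined with 10 μM Lys-des-Arg^9-Bradykinin. Bound label collected by filtration and counted. IC50 from ≥7-point curves in triplicate; Ki by Cheng-Prusoff.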

[2] = biological target: T2, recombinant human B1 receptors (Homo sapiens, UniProt P46663); experiment: Functional assay: antagonist potency by cytosolic calcium measurement (plate reader fluorimeter) in CHO-B1 cells, agonist LysDABK; format: cell-based; conditions: CHO-B1 cells, inhibition of LysDABK (EC80)-evoked [Ca2+]i elevation; read-out: B1 func.
T2 construct: host or cells: CHO (CHO-B1)
T2 sequence (P46663 1-353): T1 sequence (P46663 1-353)
Procedure, shortened: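 IC50 is the concentration giving half-maximal inhibition of the LysDABK (EC80) calcium response, fitted from at least three experiments. CHO cells stably expressing human B1 were dye-loaded, exposed to compound for 20-25 min, then read by fluo-4 fluorescence (ΔF/F) at 37 °C.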

SMILES	Ki [1]	IC50 [2]
CCc1cc(C(=O)NC2(C(=O)NCc3ccc(-n4c(-c5noc(C)n5)c(Cl)c5ccccc54)cc3)CC2)on1 [Example 123, 3-Ethyl-isoxazole-5-carboxylic acid (1-{4-[3-chloro-2-(5-methyl-[1,2,4]oxadiazol-3-yl)-indol-1-yl]-benzylcarbamoyl}-cyclopropyl)-amide]	< 20 nM	< 20 nM
Cc1nc(-c2c(Cl)c3ccccc3n2-c2ccc(CNC(=O)C3(NC(=O)c4cncc(C(F)(F)F)c4)CC3)c(F)c2)no1 [Example 111, N-(1-{4-[3-Chloro-2-(5-methyl-[1,2,4]oxadiazol-3-yl)-indol-1-yl]-2-fluoro-benzylcarbamoyl}-cyclopropyl)-5-trifluoromethyl-nicotinamide]	< 20 nM	< 20 nM
Cc1nc(-c2c(Cl)c3ccccc3n2-c2ccc(CNC(=O)C3(NC(=O)CCC(C)C)CC3)cc2)no1 [Example 140, 1-(4-Methyl-pentanoylamino)-cyclopropanecarboxylic acid 4-[3-chloro-2-(5-methyl-[1,2,4]oxadiazol-3-yl)-indol-1-yl]-benzylamide]	< 20 nM	< 20 nM
Cc1nc(-c2c(Cl)c3cc(F)ccc3n2-c2ccc(CNC(=O)C3(NC(=O)c4cccnc4Cl)CC3)cc2)no1 [Example 85, 2-Chloro-N-(1-{4-[3-chloro-5-fluoro-2-(5-methyl-[1,2,4]oxadiazol-3-yl)-indol-1-yl]-benzylcarbamoyl}-cyclopropyl)-nicotinamide]	< 20 nM	< 20 nM
COc1cc(C(=O)NC2(C(=O)NCc3ccc(-n4c(-c5nnn(C)n5)cc5ccccc54)cc3)CC2)on1 [Example 3, 3-Methoxy-isoxazole-5-carboxylic acid (1-{4-[2-(2-methyl-2H-tetrazol-5-yl)-indol-1-yl]-benzylcarbamoyl}-cyclopropyl)-amide]	< 20 nM	< 20 nM
Cc1nc(-c2c(Cl)c3ccccc3n2-c2ccc(CNC(=O)C3(NC(=O)c4ccc(C#N)cc4)CC3)cc2)no1 [Example 170, N-(1-{4-[3-Chloro-2-(5-methyl-[1,2,4]oxadiazol-3-yl)-indol-1-yl]-benzylcarbamoyl}-cyclopropyl)-4-cyano-benzamide]	< 20 nM	20 to 100 nM
Cc1noc(-c2cc3ccccc3n2-c2ccc(CNC(=O)C3(NC(=O)c4cncc(C(F)(F)F)c4)CC3)cc2)n1 [Example 83, N-(1-{4-[2-(3-Methyl-[1,2,4]oxadiazol-5-yl)-indol-1-yl]-benzylcarbamoyl}-cyclopropyl)-5-trifluoromethyl-nicotinamide]	< 20 nM	< 20 nM
Cc1nc(-c2c(Cl)c3ccccc3n2-c2ccc(CNC(=O)C3(NC(=O)c4ccc(F)c(C(F)(F)F)c4)CC3)cc2)no1 [Example 98, N-(1-{4-[3-Chloro-2-(5-methyl-[1,2,4]oxadiazol-3-yl)-indol-1-yl]-benzylcarbamoyl}-cyclopropyl)-4-fluoro-3-trifluoromethyl-benzamide]	< 20 nM	20 to 100 nM
Cc1cc(C(=O)NC2(C(=O)NCc3ccc(-n4c(-c5noc(C)n5)c(Cl)c5ccccc54)cc3)CC2)no1 [Example 135, 5-Methyl-isoxazole-3-carboxylic acid (1-{4-[3-chloro-2-(5-methyl-[1,2,4]oxadiazol-3-yl)-indol-1-yl]-benzylcarbamoyl}-cyclopropyl)-amide]	< 20 nM	20 to 100 nM
Cc1nc(-c2c(Cl)c3ccccc3n2-c2ccc(CNC(=O)C3(NC(=O)C=Cc4ccco4)CC3)cc2)no1 [Example 171, 1-(3-Furan-2-yl-acryloylamino)-cyclopropanecarboxylic acid 4-[3-chloro-2-(5-methyl-[1,2,4]oxadiazol-3-yl)-indol-1-yl]-benzylamide]	< 20 nM	20 to 100 nM
Cn1nnc(-c2c(Cl)c3ccccc3n2-c2ccc(CNC(=O)C3(NC(=O)C(F)(F)F)CC3)cc2)n1 [Example 1, 1-(2,2,2-Trifluoro-acetylamino)-cyclopropanecarboxylic acid 4-[3-chloro-2-(2-methyl-2H-tetrazol-5-yl)-indol-1-yl]-benzylamide]	< 20 nM	< 20 nM
Cc1nc(-c2c(Cl)c3ccccc3n2-c2ccc(CNC(=O)C3(NC(=O)C(F)(F)F)CC3)cc2)no1 [Example 23, 1-(2,2,2-Trifluoro-acetylamino)-cyclopropanecarboxylic acid 4-[3-chloro-2-(5-methyl-[1,2,4]oxadiazol-3-yl)-indol-1-yl]-benzylamide]	< 20 nM	< 20 nM
CSc1ccc(C(=O)NC2(C(=O)NCc3ccc(-n4c(-c5noc(C)n5)c(Cl)c5ccccc54)cc3)CC2)s1 [Example 173, 5-Methylsulfanyl-thiophene-2-carboxylic acid (1-{4-[3-chloro-2-(5-methyl-[1,2,4]oxadiazol-3-yl)-indol-1-yl]-benzylcarbamoyl}-cyclopropyl)-amide]	< 20 nM	20 to 100 nM
COc1cc(C(=O)NC2(C(=O)NCc3ccc(-n4c(-c5noc(C)n5)cc5cc(Cl)ccc54)cc3)CC2)on1 [Example 53, 3-Methoxy-isoxazole-5-carboxylic acid (1-{4-[5-chloro-2-(5-methyl-[1,2,4]oxadiazol-3-yl)-indol-1-yl]-benzylcarbamoyl}-cyclopropyl)-amide]	< 20 nM	< 20 nM
Cc1nc(-c2c(Cl)c3ccccc3n2-c2ccc(CNC(=O)C3(NC(=O)c4cccc(C(F)(F)F)c4)CC3)cc2)no1 [Example 177, N-(1-{4-[3-Chloro-2-(5-methyl-[1,2,4]oxadiazol-3-yl)-indol-1-yl]-benzylcarbamoyl}-cyclopropyl)-3-trifluoromethyl-benzamide]	20 to 100 nM	< 20 nM
COc1cc(C(=O)NC2(C(=O)NCc3ccc(-n4c(C#N)cc5cc(F)ccc54)cc3)CC2)on1 [Example 49, 3-Methoxy-isoxazole-5-carboxylic acid {1-[4-(2-cyano-5-fluoro-indol-1-yl)-benzylcarbamoyl]-cyclopropyl}-amide]	< 20 nM	< 20 nM
Cc1nc(-c2c(Cl)c3ccccc3n2-c2ccc(CNC(=O)C3(NC(=O)c4cccnc4)CC3)cc2)no1 [Example 158, N-(1-{4-[3-Chloro-2-(5-methyl-[1,2,4]oxadiazol-3-yl)-indol-1-yl]-benzylcarbamoyl}-cyclopropyl)-nicotinamide]	< 20 nM	< 20 nM
COc1cc(C(=O)NC2(C(=O)NCc3ccc(-n4c(C#N)c(Cl)c5ccccc54)cc3)CC2)on1 [Example 39, 3-Methoxy-isoxazole-5-carboxylic acid {1-[4-(3-chloro-2-cyano-indol-1-yl)-benzyl-carbamoyl]-cyclopropyl}-amide]	< 20 nM	< 20 nM
Cc1nc(-c2c(Cl)c3cc(Cl)ccc3n2-c2ccc(CNC(=O)C3(NC(=O)c4cc(C5CC5)on4)CC3)cc2)no1 [Example 75, 5-Cyclopropyl-isoxazole-3-carboxylic acid (1-{4-[3,5-dichloro-2-(5-methyl-[1,2,4]oxadiazol-3-yl)-indol-1-yl]-benzylcarbamoyl}-cyclopropyl)-amide]	< 20 nM	< 20 nM
N#Cc1cc2ccccc2n1-c1ccc(CNC(=O)C2(NC(=O)c3cncc(C(F)(F)F)c3)CC2)cc1 [Example 84, N-{1-[4-(2-Cyano-indol-1-yl)-benzylcarbamoyl]-cyclopropyl}-5-trifluoromethyl-nicotinamide]	< 20 nM	< 20 nM
Cc1nc(-c2c(Cl)c3ccccc3n2-c2ccc(CNC(=O)C3(NC(=O)c4cccc(I)c4)CC3)cc2)no1 [Example 176, N-(1-{4-[3-Chloro-2-(5-methyl-[1,2,4]oxadiazol-3-yl)-indol-1-yl]-benzylcarbamoyl}-cyclopropyl)-3-iodo-benzamide]	20 to 100 nM	20 to 100 nM
COc1cc(C(=O)NC2(C(=O)NCc3ccc(-n4c(-c5noc(C)n5)cc5ccccc54)cn3)CC2)on1 [Example 57, 3-Methoxy-isoxazole-5-carboxylic acid [1-({5-[2-(5-methyl-[1,2,4]oxadiazol-3-yl)-indol-1-yl]-pyridin-2-ylmethyl}-carbamoyl)-cyclopropyl]-amide]	20 to 100 nM	20 to 100 nM
Cn1nnc(-c2c(Cl)c3ccccc3n2-c2ccc(CNC(=O)C3(NC(=O)c4cccnc4Cl)CC3)cc2)n1 [Example 27, 2-Chloro-N-(1-{4-[3-chloro-2-(2-methyl-2H-tetrazol-5-yl)-indol-1-yl]-benzylcarbamoyl}-cyclopropyl)-nicotinamide]	< 20 nM	< 20 nM
COc1cc(C(=O)NC2(C(=O)NCc3ccc(-n4c(-c5nnc(C)o5)c(Cl)c5cc(F)ccc54)cc3)CC2)on1 [Example 37, 3-Methoxy-isoxazole-5-carboxylic acid (1-{4-[3-chloro-5-fluoro-2-(5-methyl-[1,3,4]oxadiazol-2-yl)-indol-1-yl]-benzylcarbamoyl}-cyclopropyl)-amide]	< 20 nM	< 20 nM
